Test results taken from paper PMC6150024, “In Vitro Evaluation of Cytotoxicity and Permeation Study on Lysine- and Arginine-Based Lipopeptides with Proven Antimicrobial Activity” (Molecules : A Journal of Synthetic Chemistry and Natural …, 2017).
Converted amounts (≈) assume the structure as drawn. Where two headings read alike, the source gives them in different places. Residues, ends and D or L forms follow the SMILES beside them. *: point of attachment. Palmitoyl = CCCCCCCCCCCCCCCC(=O)*

How the values were obtained:
[1] = system: Candida albicans (ATCC 10231); assay type: cell-based; conditions: ATCC 10231, 48 h
Experimental: (§1) The compounds were dissolved in a mixture of dimethyl sulphoxide (DMSO) and phosphate buffer (PBS). […] MIC was determined by the serial dilution method on polystyrene 96-well plates with Mueller–Hinton II broth (MHB II) for reference bacterial strains: Staphylococcus aureus (ATCC 25923) and Escherichia coli (ATCC 25922), while for Candida albicans (ATCC 10231), the Sabouraud dextrose broth was applied. The microorganisms were obtained from the Polish Collection of Microorganisms (Wroclaw, Poland). Bacteria were cultured at 37 °C under aerobic conditions overnight in Brain Heart Infusion broth, centrifuged at 1000 rpm for 8 min, washed thrice with PBS and resuspended in MHB II. Candida albicans was cultured in Sabouraud dextrose broth for 48 h at 27 °C under aerobic conditions, centrifuged at 1000 rpm for 8 min, washed thrice with PBS and resuspended in Sabouraud dextrose broth. Bacterial (5 × 10^5 CFU/mL) and fungal (5 × 10^4 CFU/mL) suspensions were exposed to lipopeptides applied at graded concentrations (range 1–512 mg/L) for 18 h at 37 °C under aerobic conditions (bacteria) and 48 h at 27 °C under aerobic conditions (fungi). MIC was taken as the lowest concentration at which no visible growth of bacteria/fungi was observed. MBC and MFC were determined using MH II agar and Sabouraud Dextrose agar, for bacteria and fungi respectively. The contents of wells with MICs and two subsequent higher concentrations were transferred to agar plates and cultivated for 18 h at 37 °C under aerobic conditions (bacteria) and 48 h at 27 °C under aerobic conditions (fungi). The MBC and MFC were taken as the lowest concentrations at which no colony forming units were found. All tests were performed in triplicate.

[2] = system: Escherichia coli (ATCC 25922); assay type: cell-based; conditions: for MBC E. coli / MIC E. coli: ATCC 25922, 18 h
Experimental: as §1

[3] = system: Staphylococcus aureus (ATCC 25923); assay type: cell-based; conditions: for MBC S. aureus / MIC S. aureus: ATCC 25923, 18 h
Experimental: as §1

HaCaT keratinocytes = assay type: cell-based, human
Experimental: HaCaT cells were obtained from American Type Culture Collection (ATCC). Cells were cultivated in Dulbecco’s modified Eagle Medium (Invitrogen) with 10% fetal bovine serum in humidified incubator at […] in 5% CO2 and cultured in 96-well plates and allowed to grow to 60–70% confluence prior to the start of the experiments.
The MTT assay is a colorimetric technique for assessing cell metabolic activity based on NAD(P)H-dependent cellular oxidoreductase enzymes activity that, under defined conditions, reflects the number of viable cells present. Viable cells reduce the tetrazolium dye MTT 3-(4,5-dimethylthiazol-2-yl)-2,5-diphenyltetrazolium bromide to its insoluble formazan, which has a purple colour. The colour intensity reflects the number of live cells and can be measured spectrophotometrically. Briefly, one day after culturing 500 cells per well, different concentrations of compounds were applied. After a 24-h incubation with the specified compounds, a medium containing 1 mg/mL MTT was added to the cells (HaCaT keratinocytes) up to a final concentration of 0.5 mg/mL and incubated at 37 °C for 4 h. The medium was then aspired, and the formazan product was solubilized with DMSO. The absorbance at 630 nm (background absorbance) was subtracted and absorbance measured at 570 nm for each well. There were 6 replicates for each tested concentration. All experiments were repeated at least twice. The resulting IC50 values were calculated with a GraFit 7 software (v. 7.0, Erithacus, Berkley, CA, USA).

[4] = assay type: physicochemical
Experimental: as §1

[5] = system: Staphylococcus aureus (ATCC 25923); parameters: method as in 2 sources, ref 11 = [11]; PMID 28203232; doi:10.3389/fmicb.2017.00123; 11. Greber K.E. Dawgul M. Kamysz W. Sawicki W. Cationic net charge and counter ion type as antimicrobial activity determinant factors of short lipopeptides Front. Microbiol. 2017 8 1 10 10.3389/fmicb. ||| ref 12 = [12]; PMID 24748099; doi:10.1007/s00726-014-1744-9; 12. Greber K.E. Dawgul M. Kamysz W. Sawicki W. Łukasiak J. Biological and surface-active properties of double-chain cationic amino acid-based surfactants Amino Acids 2014 46 1893 1898 10.1007/s00726-0; conditions: cited from earlier work; for MIC S. aureus: ATCC 25923, serial dilution; for MBC S. aureus: ATCC 25923
[6] = system: Escherichia coli (ATCC 25922); parameters: method as in 2 sources, ref 11 = [11]; PMID 28203232; doi:10.3389/fmicb.2017.00123; 11. Greber K.E. Dawgul M. Kamysz W. Sawicki W. Cationic net charge and counter ion type as antimicrobial activity determinant factors of short lipopeptides Front. Microbiol. 2017 8 1 10 10.3389/fmicb. ||| ref 12 = [12]; PMID 24748099; doi:10.1007/s00726-014-1744-9; 12. Greber K.E. Dawgul M. Kamysz W. Sawicki W. Łukasiak J. Biological and surface-active properties of double-chain cationic amino acid-based surfactants Amino Acids 2014 46 1893 1898 10.1007/s00726-0; conditions: cited from earlier work; for MIC E. coli: ATCC 25922, serial dilution; for MBC E. coli: ATCC 25922
[7] = system: Candida albicans (ATCC 10231); parameters: method as in 2 sources, ref 11 = [11]; PMID 28203232; doi:10.3389/fmicb.2017.00123; 11. Greber K.E. Dawgul M. Kamysz W. Sawicki W. Cationic net charge and counter ion type as antimicrobial activity determinant factors of short lipopeptides Front. Microbiol. 2017 8 1 10 10.3389/fmicb. ||| ref 12 = [12]; PMID 24748099; doi:10.1007/s00726-014-1744-9; 12. Greber K.E. Dawgul M. Kamysz W. Sawicki W. Łukasiak J. Biological and surface-active properties of double-chain cationic amino acid-based surfactants Amino Acids 2014 46 1893 1898 10.1007/s00726-0; conditions: cited from earlier work; for MIC C. albicans: ATCC 10231, serial dilution; for MFC C. albicans: ATCC 10231
human keratinocytes = conditions: cited from earlier work
Excerpt: (§2) The results of the MTT assay obtained in this study indicate high toxicity of lipopeptides containing one palmitic acid chain. This contradicts the previously advanced hypotheses about the selectivity of antimicrobial peptides. According to some authors, peptides designed based on naturally occurring compounds in human organisms are expected to be safe to human cells and their selectivity results from the presence of cholesterol and arrangement of lipids in the eukaryotic cell membrane. […] In the previou ...

human red blood cells = conditions: cited from earlier work
Excerpt: as §2

[8] = MTT assay, 24 h exposure, 6 replicates per concentration, experiments repeated at least twice
[9] = classification of antimicrobial peptides from patent

| Compound | MFC C. albicans [1] | MIC C. albicans [1] | MBC E. coli [2] | MIC E. coli [2] | MBC S. aureus [3] | MIC S. aureus [3] | IC50 ± SD on HaCaT keratinocytes (HaCaT keratinocytes; 24 h) | Concentration at which solutions were obtained [4] | other results |
| --- | --- | --- | --- | --- | --- | --- | --- | --- | --- |
| CCCCCCCCCCCCCCCC(=O)N[C@@H](CCCCN)C(=O)NCCCC[C@H](N)C(N)=O [Lipopeptide C16-KεK-NH2] | 256 µg/mL (≈ 500 µM) | 128 µg/mL (≈ 250 µM) | 32 µg/mL (≈ 62.5 µM) | 16 µg/mL (≈ 31.3 µM) | 8 µg/mL (≈ 15.6 µM) | 8 µg/mL (≈ 15.6 µM) | 7.4 ± 0.9 mg/L (≈ 14.5 µM) |  |  |
| CCCCCCCCCCCCCCCC(=O)N[C@@H](CCCCN)C(=O)N[C@@H](CCCCN)C(=O)N[C@@H](CCCCN)C(N)=O [Lipopeptide C16-KKK-NH2] |  |  |  |  |  |  | 3.2 ± 0.1 mg/L (≈ 5 µM) | 512 µg/mL | MIC S. aureus ([5]; Table 1 ref 11): 4 µg/mL (≈ 6.25 µM); MBC S. aureus ([5]; Table 1 ref 11): 8 µg/mL (≈ 12.5 µM); MIC E. coli ([6]; Table 1 ref 11): 8 µg/mL (≈ 12.5 µM); MBC E. coli ([6]; Table 1 ref 11): 16 µg/mL (≈ 25 µM); MIC C. albicans ([7]; Table 1 ref 11): 128 µg/mL (≈ 200 µM); MFC C. albicans ([7]; Table 1 ref 11): 128 µg/mL (≈ 200 µM) |
| CCCCCCCCCCCCCCCC(=O)N[C@@H](CCCNC(=N)N)C(=O)N[C@@H](CCCNC(=N)N)C(N)=O [Lipopeptide C16-RR-NH2] (Palmitoyl-Arg-Arg-NH2) | 256 µg/mL (≈ 451 µM) | 128 µg/mL (≈ 225 µM) | 16 µg/mL (≈ 28.2 µM) | 16 µg/mL (≈ 28.2 µM) | 8 µg/mL (≈ 14.1 µM) | 8 µg/mL (≈ 14.1 µM) | 1.9 ± 0,3 mg/L |  |  |
| CCCCCCCCCCCCCCCC(=O)N[C@@H](CCCNC(=N)N)C(=O)N[C@@H](CCCNC(=N)N)C(=O)N[C@@H](CCCNC(=N)N)C(N)=O [Lipopeptide C16-RRR-NH2] (Palmitoyl-Arg-Arg-Arg-NH2) | 256 µg/mL (≈ 354 µM) | 128 µg/mL (≈ 177 µM) | 16 µg/mL (≈ 22.1 µM) | 16 µg/mL (≈ 22.1 µM) | 4 µg/mL (≈ 5.52 µM) | 2 µg/mL (≈ 2.76 µM) | 3.2 ± 1.4 mg/L (≈ 4.42 µM) |  |  |
| CCCCCCCCCCCCCCCC(=O)N[C@@H](CCCCN)C(=O)N[C@@H](CCCCN)C(N)=O [Lipopeptide C16-KK-NH2] |  |  |  |  |  |  | 1.8 ± 0.2 mg/L (≈ 3.52 µM) | 512 µg/mL | MIC S. aureus ([5]; Table 1 ref 11): 4 µg/mL (≈ 7.82 µM); MBC S. aureus ([5]; Table 1 ref 11): 4 µg/mL (≈ 7.82 µM); MIC E. coli ([6]; Table 1 ref 11): 8 µg/mL (≈ 15.6 µM); MBC E. coli ([6]; Table 1 ref 11): 8 µg/mL (≈ 15.6 µM); MIC C. albicans ([7]; Table 1 ref 11): 128 µg/mL (≈ 250 µM); MFC C. albicans ([7]; Table 1 ref 11): 128 µg/mL (≈ 250 µM); Concentration with negative influence on proliferation and viability of human keratinocytes (human keratinocytes): ≥ 1 µg/mL |
| (C12)2-KKKK-NH2 |  |  |  |  |  |  |  |  | IC50 ± SD on HaCaT keratinocytes (HaCaT keratinocytes; [8]): 42.1 ± 9.1 mg/L; MIC S. aureus ([5]; Table 1 ref 12): 16 µg/mL; MBC S. aureus ([5]; Table 1 ref 12): 32 µg/mL; MIC E. coli ([6]; Table 1 ref 12): 64 µg/mL; MBC E. coli ([6]; Table 1 ref 12): 64 µg/mL; MIC C. albicans ([7]; Table 1 ref 12): 256 µg/mL; MFC C. albicans ([7]; Table 1 ref 12): 512 µg/mL |
| CCCCCCCCCCCCCCCC(=O)N[C@@H](CCCCN)C(=O)N[C@@H](CCCNC(=N)N)C(=O)N[C@@H](CCCCN)C(N)=O [Lipopeptide C16-KRK-NH2] (Palmitoyl-Lys-Arg-Lys-NH2) | 256 µg/mL (≈ 383 µM) | 128 µg/mL (≈ 192 µM) | 16 µg/mL (≈ 24 µM) | 8 µg/mL (≈ 12 µM) | 16 µg/mL (≈ 24 µM) | 4 µg/mL (≈ 5.99 µM) | 2.3 ± 0.4 mg/L (≈ 3.44 µM) | 512 µg/mL |  |
| (C10)2-KKKK-NH2 |  |  |  |  |  |  |  |  | Activity class against E. coli by classification of Shai and Abrahami [2, 9]: active; Activity class against S. aureus by classification of Shai and Abrahami [3, 9]: highly active; IC50 ± SD on HaCaT keratinocytes (HaCaT keratinocytes; [8]): 49.4 ± 9.1 mg/L; MIC S. aureus ([5]; Table 1 ref 12): 8 µg/mL; MBC S. aureus ([5]; Table 1 ref 12): 16 µg/mL; MIC E. coli ([6]; Table 1 ref 12): 16 µg/mL; MBC E. coli ([6]; Table 1 ref 12): 16 µg/mL; MIC C. albicans ([7]; Table 1 ref 12): 128 µg/mL; MFC C. albicans ([7]; Table 1 ref 12): 256 µg/mL; Toxicity towards human red blood cells at microbiologically active concentrations (human red blood cells): non-toxic |
